According to ChEMBL document CHEMBL1141914:

Target: T1, Prostaglandin G/H synthase 1 (Ovis aries) (UniProt P05979)
T1 sequence (whole entry): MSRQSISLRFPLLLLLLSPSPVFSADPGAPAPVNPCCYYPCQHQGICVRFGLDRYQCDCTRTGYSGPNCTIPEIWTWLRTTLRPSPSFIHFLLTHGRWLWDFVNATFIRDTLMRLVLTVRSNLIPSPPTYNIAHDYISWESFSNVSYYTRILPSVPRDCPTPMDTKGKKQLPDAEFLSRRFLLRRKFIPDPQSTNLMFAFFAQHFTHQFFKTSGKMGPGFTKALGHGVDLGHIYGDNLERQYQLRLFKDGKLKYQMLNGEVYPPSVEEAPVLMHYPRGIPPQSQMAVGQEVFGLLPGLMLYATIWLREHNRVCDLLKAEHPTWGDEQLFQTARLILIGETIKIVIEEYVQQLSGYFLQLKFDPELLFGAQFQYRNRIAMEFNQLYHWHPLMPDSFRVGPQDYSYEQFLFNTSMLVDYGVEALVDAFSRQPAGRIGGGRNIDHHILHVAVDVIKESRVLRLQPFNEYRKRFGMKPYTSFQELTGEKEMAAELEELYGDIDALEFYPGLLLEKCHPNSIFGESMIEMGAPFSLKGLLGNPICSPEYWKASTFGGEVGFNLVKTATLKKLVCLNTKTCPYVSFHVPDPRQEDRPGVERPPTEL
Assay: Percent inhibition against Prostaglandin G/H synthase 1 from ram seminal vesicles at 100 uM

Structure (SMILES) | inhibition
COc1cc(/C=C/c2cc(/C=C/c3ccc(O)cc3)on2)ccc1O | 47.4%
COc1cc(/C=C/c2cc(/C=C/c3ccc(O)c(OC)c3)[nH]n2)ccc1O | 87%
COc1cc(/C=C/c2cc(/C=C/c3ccc(O)c(OC)c3)on2)ccc1O | 80.8%
COc1cc(/C=C/c2cc(/C=C/c3ccc(O)cc3)[nH]n2)ccc1O | 73.9%

Further lines, results first:

inhibition | Structure (SMILES)
80.5% | COc1cc(/C=C/C(=O)CC(=O)/C=C/c2ccc(O)c(OC)c2)ccc1O
41.7% | O=C(/C=C/c1ccc(O)cc1)CC(=O)/C=C/c1ccc(O)cc1
44.4% | Oc1ccc(/C=C/c2cc(/C=C/c3ccc(O)cc3)[nH]n2)cc1
67.8% | COc1cc(/C=C/C(O)=C/C(=O)/C=C/c2ccc(O)cc2)ccc1O
